What was measured:
[1] = system: C2C12 skeletal muscle cells; assay: Reactive species scavenging ability (DCFDA fluorescence); format: cell-based; conditions: 100 μM ester for 1 h after 5 days culture in GLT RPMI-1640 media
Protocol: C2C12 muscle cell myotubes were cultured for 5 days in standard RPMI-1640 tissue culture media or GLT RPMI-1640 media. Corresponding media were then replaced and supplemented independently with 100 μM of a carnosine ester (L-carnosine methyl ester, L-carnosine ethyl ester, and L-carnosine iso-propyl ester investigated) for 1 h. Non-supplemented standard and GLT RPMI-1640 media were also retained as controls. Cells were thereafter washed 3 times in KRB and 20 μM 2′,7′-dichlorofluorescein diacetate (DCFDA), a cell permeant fluorogenic dye that measures hydroxyl, peroxyl and other ROS, was loaded for 1 h. Reactive species detection was measured via fluorescence, with excitation at 495 nm and emission at 530 nm.

[2] = system: C2C12 skeletal muscle cells; assay: Toxicity testing of carnosine esters (Calcein AM cell viability); format: cell-based; conditions: 100 μM ester in GLT RPMI-1640 medium, 5 days culture, versus control medium
Protocol: C2C12 muscle cell myotubes were cultured for 5 days in the following four culture media: a control RPMI-1640 medium; glucolipotoxic (GLT) RPMI-1640 medium (28 mM glucose, 200 μM palmitic acid and 200 μM oleic acid) supplemented with 100 μM of L-carnosine methyl ester; GLT RPMI-1640 medium supplemented with 100 μM of L-carnosine ethyl ester; and GLT RPMI-1640 medium supplemented with 100 μM of L-carnosine iso-propyl ester. Following culture, media were aspirated and cells washed 3 times in Krebs-Ringer buffer (KRB). A final concentration of 5 μM Calcein AM Cell Viability Dye (ThermoFischer) in KRB was loaded for 1 h before washing again with KRB. Cell viability was measured via fluorescence, with excitation and emission at 490 nm and 520 nm, respectively.

INS-1 pancreatic β-cells = assay: Insulin secretion from INS-1 pancreatic β-cells (ELISA, normalised to cellular protein); format: cell-based; conditions: 100 μM ester in GLT RPMI-1640 medium for 5 days; 2 h secretagogue cocktail stimulation
Protocol: INS-1 pancreatic B-cells were cultured for 5 days in standard RPMI-1640 tissue culture media or GLT RPMI-1640 media. The media were either used without further supplementation (used as controls) or were independently supplemented with either 10 mM of L-carnosine or with 100 μM of a carnosine ester (L-carnosine methyl ester, L-carnosine ethyl ester, and L-carnosine iso-propyl ester investigated). INS-1 cells were then treated with KRB or KRB supplemented with secretagogue cocktail (13.5 mM glucose, 1 μM phorbol 12-myristate 13-acetate, 1 mM isobutyl-methylxanthine, 1 mM tolbutamide, 10 mM leucine, 10 mM glutamine) as a stimulant of insulin secretion for 2 h. Insulin secretion was determined by ELISA assay, with data normalised to cellular protein content.

[3] = system: High fat-fed spontaneously diabetic mice; assay: Glucose tolerance test in an in vivo model of type-2 diabetes; conditions: 45 mg/kg body weight/day in diet
Protocol: High fat-fed spontaneously diabetic mice were used as an animal model of type-2 diabetes. A glucose tolerance test was performed on three sets of mice, wherein the mice were initially fasted for 6 h. A […] glucose solution was then administered to the three sets of mice in their drinking water and their blood glucose concentrations (mmol/L) monitored over a period of 2 h. The following three sets of mice were used in the study: • Non-diabetic, non-high fat-fed mice. • Spontaneously diabetic high fat-fed mice. • Spontaneously diabetic high fat-fed mice whose diet also included 45 mg/kg body weight/day of L-carnosine iso-propyl ester.
Spontaneously diabetic high fat-fed mice were defined as mice which had been fed the following high fat diet from Research Diets: (60% fat; D12492). Non-diabetic, non-high fat-fed mice were used as a control and were fed the following low fat diet from Research Diets: (10% fat, D12450B). The body weights of the mice on the two different diets were measured throughout.

Row | Structure (SMILES) | intracellular reactive species (GLT-associated reactive species levels) [1] | cell viability [2] | insulin secretion in cells exposed to glucolipotoxicity (GLT) (INS-1 pancreatic β-cells) | toxic effects on the animals ([3]; high fat-fed mice) | glucose tolerance ([3]; spontaneously diabetic high fat-fed mice, 6 h fast) | blood glucose concentrations at the end of the study (2 h) ([3]; versus high fat-fed mice only administered the high fat diet)
1 | CCOC(=O)[C@H](Cc1cnc[nH]1)NC(=O)CCN [L-carnosine ethyl ester] | return to control values | non-toxic | reverse glucolipotoxic inhibition of insulin secretion |  |  | 
2 | CC(C)OC(=O)[C@H](Cc1cnc[nH]1)NC(=O)CCN [L-carnosine iso-propyl ester] | return to control values | non-toxic | reverse glucolipotoxic inhibition of insulin secretion | no toxic effects | significantly improved glucose tolerance | significantly lower
3 | COC(=O)[C@H](Cc1cnc[nH]1)NC(=O)CCN [L-carnosine methyl ester] | return to control values | non-toxic | reverse glucolipotoxic inhibition of insulin secretion |  |  | 

— US20240252469A1, “Carnosine Analogs for Use in the Treatment of Metabolic Disorders” (priority 2021, published 2024)
